From patent US12630600B2 (MEDIMMUNE LIMITED, priority 2022, dated 2026)
Where two headings read alike, the source gives them in different places. Starred links: 1 amine or outer side, 2 acyl side, 3 side chain; linkers in the order of their positions; H or OH if unused. Non-standard residues stand in square brackets, D forms with d. Residues, ends and D or L forms follow the SMILES beside them. Groups on a side chain read outwards from the residue. *: point of attachment. C18 diacid = O=C(O)CCCCCCCCCCCCCCCCC(=O)*; Dip = N[C@H](C(=O)O)C(c1ccccc1)c1ccccc1; γGlu = O=C(O)[C@H](CCC(=O)[*:2])N[*:1]; Palmitoyl = CCCCCCCCCCCCCCCC(=O)*; αMeF = C[C@](N)(Cc1ccccc1)C(=O)O; PEG2 = NCCOCCOCCC(=O)O; AEEA = NCCOCCOCC(=O)O; Aib = CC(C)(N)C(=O)O

What was measured:
[1] = biological target: T1, human GLP-1 receptor (hGLP-1R) (Homo sapiens, UniProt P43220); assay: cAMP production (HTRF) in CHO cells expressing human GLP-1 receptor; type: cell-based; conditions: for % Relative Potency Ratio: % GLP-1R activity relative to GLP-1 / % GlucR activity relative to glucagon; for EC50: cAMP, geometric mean, read-out: hGLP-1R EC50
T1 construct: expressed in transfected cells; host or cells: CHO

[2] = biological target: T2, human glucagon receptor (hGCGR) (Homo sapiens, UniProt P47871); assay: cAMP production (HTRF) in CHO cells expressing human glucagon receptor; type: cell-based; conditions: read-out: hGluc-R EC50
T2 construct: expressed in transfected cells; host or cells: CHO

[3] = Table 6, modification at position 17, CHO cells expressing hGLP-1R
[4] = Table 6, modification at position 17, CHO cells expressing hGCGR, geometric mean
[5] = Table 9, peptides modified at position 10, geometric mean, CHO cells

T1 sequence (P43220 24-463): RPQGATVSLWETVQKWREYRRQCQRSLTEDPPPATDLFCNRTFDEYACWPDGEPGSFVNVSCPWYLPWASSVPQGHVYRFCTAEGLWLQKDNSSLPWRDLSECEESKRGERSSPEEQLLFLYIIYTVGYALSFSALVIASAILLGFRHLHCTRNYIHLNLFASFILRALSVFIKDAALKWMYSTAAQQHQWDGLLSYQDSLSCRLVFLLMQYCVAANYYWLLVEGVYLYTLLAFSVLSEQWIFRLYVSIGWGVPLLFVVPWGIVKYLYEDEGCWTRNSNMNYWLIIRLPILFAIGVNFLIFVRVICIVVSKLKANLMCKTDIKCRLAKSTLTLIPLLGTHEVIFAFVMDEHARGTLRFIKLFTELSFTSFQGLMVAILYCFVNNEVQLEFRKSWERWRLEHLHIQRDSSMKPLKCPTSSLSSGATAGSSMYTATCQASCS
T2 sequence (P47871 26-477): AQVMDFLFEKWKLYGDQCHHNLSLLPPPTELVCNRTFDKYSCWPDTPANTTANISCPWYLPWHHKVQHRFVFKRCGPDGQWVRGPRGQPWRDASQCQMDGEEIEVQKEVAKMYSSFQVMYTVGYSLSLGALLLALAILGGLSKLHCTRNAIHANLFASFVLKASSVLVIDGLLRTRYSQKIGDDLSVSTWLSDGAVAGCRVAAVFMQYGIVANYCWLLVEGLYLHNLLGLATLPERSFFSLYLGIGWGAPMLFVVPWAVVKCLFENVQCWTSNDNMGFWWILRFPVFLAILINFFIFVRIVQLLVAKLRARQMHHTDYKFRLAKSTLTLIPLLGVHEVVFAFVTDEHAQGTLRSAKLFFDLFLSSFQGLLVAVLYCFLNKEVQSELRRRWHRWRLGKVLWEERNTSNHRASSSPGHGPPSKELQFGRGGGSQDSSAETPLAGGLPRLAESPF

Row | EC50 [1, 3] | EC50 [2, 4] | % Relative Potency Ratio ([1]; Table 9) | EC50 [2, 5] | Compound | further results
1 | – | – | – | – | CCCCCCCCCCCCCCCC(=O)N[C@@H](CCC(=O)NCCOCCOCCC(=O)NCCOCCOCCC(=O)NCCCC[C@H](NC(=O)[C@H](CCCCN)NC(=O)[C@H](CO)NC(=O)[C@@H](NC(=O)[C@H](CC(=O)O)NC(=O)[C@H](CO)NC(=O)[C@@H](NC(=O)[C@](C)(Cc1ccccc1)NC(=O)[C@H](CO)NC(=O)CNC(=O)[C@H](CCC(N)=O)NC(=O)C(C)(C)NC(=O)[C@@H](N)Cc1c[nH]cn1)[C@@H](C)O)C(C)C)C(=O)N[C@@H](CC(C)C)C(=O)N[C@@H](CC(=O)O)C(=O)N[C@@H](CO)C(=O)N[C@@H](CCCNC(=N)N)C(=O)N[C@@H](C)C(=O)N[C@@H](C)C(=O)N[C@@H](CCC(N)=O)C(=O)N[C@@H](CC(=O)O)C(=O)N[C@@](C)(Cc1ccccc1)C(=O)N[C@H](C(=O)N[C@@H](CCC(=O)O)C(=O)N[C@@H](Cc1c[nH]c2ccccc12)C(=O)N[C@H](C(=O)N[C@@H](C)C(=O)N[C@@H](CC(N)=O)C(=O)N[C@H](C(N)=O)[C@@H](C)O)[C@@H](C)CC)C(C)C)C(=O)O [Peptide 401] (H-H[Aib]QGS[αMeF]TSDVSKK([PEG2-PEG2-γGlu-Palmitoyl])LDSRAAQD[αMeF]VEWIANT-NH2) | % Relative Potency Ratio ([1]; Table 10): 32.3; EC50 ([2]; Table 10, peptides modified at position 13, geometric mean, CHO cells): 0.00954 nM
2 | 1.23 nM | 2.06 nM | – | – | CC[C@H](C)[C@H](NC(=O)[C@@H](NC(=O)C(C)(C)NC(=O)[C@H](CCC(=O)O)NC(=O)[C@@H](NC(=O)[C@](C)(Cc1ccccc1)NC(=O)[C@H](CC(=O)O)NC(=O)[C@H](CCC(N)=O)NC(=O)[C@H](C)NC(=O)[C@H](C)NC(=O)[C@H](CCCCNC(=O)CCOCCOCCNC(=O)CCOCCOCCNC(=O)CC[C@H](NC(=O)CC[C@H](NC(=O)CCCCCCCCCCCCCCCCC(=O)O)C(=O)O)C(=O)O)NC(=O)[C@H](CO)NC(=O)[C@H](CC(=O)O)NC(=O)[C@H](CC(C)C)NC(=O)[C@@H](NC(=O)[C@H](CCCCN)NC(=O)[C@H](CO)NC(=O)[C@@H](NC(=O)[C@H](CC(=O)O)NC(=O)[C@H](CO)NC(=O)[C@@H](NC(=O)[C@](C)(Cc1ccccc1)NC(=O)[C@H](CO)NC(=O)CNC(=O)[C@H](CCC(N)=O)NC(=O)[C@H](CO)NC(=O)[C@@H](N)Cc1c[nH]cn1)[C@@H](C)O)C(C)C)C(c1ccccc1)c1ccccc1)C(C)C)[C@@H](C)CC)C(=O)N[C@@H](CC(N)=O)C(=O)N[C@H](C(N)=O)[C@@H](C)O [Peptide 65] (H-HSQGS[αMeF]TSDVSK[Dip]LDSK([PEG2-PEG2-γGlu-γGlu-C18 diacid])AAQD[αMeF]VE[Aib]IINT-NH2) | % Relative Potency Ratio ([1]; Table 6): 3.3
3 | – | – | 40.2 | 0.0118 nM | CCCCCCCCCCCCCCCC(=O)N[C@@H](CCC(=O)NCCOCCOCCC(=O)NCCOCCOCCC(=O)NCCCC[C@H](NC(=O)[C@H](CC(=O)O)NC(=O)[C@H](CO)NC(=O)[C@@H](NC(=O)[C@](C)(Cc1ccccc1)NC(=O)[C@H](CO)NC(=O)CNC(=O)[C@H](CCC(N)=O)NC(=O)C(C)(C)NC(=O)[C@@H](N)Cc1c[nH]cn1)[C@@H](C)O)C(=O)N[C@@H](CO)C(=O)N[C@@H](CCCCN)C(=O)N[C@H](C(=O)N[C@@H](CC(C)C)C(=O)N[C@@H](CC(=O)O)C(=O)N[C@@H](CO)C(=O)N[C@@H](CCCNC(=N)N)C(=O)N[C@@H](C)C(=O)N[C@@H](C)C(=O)N[C@@H](CCC(N)=O)C(=O)N[C@@H](CC(=O)O)C(=O)N[C@@](C)(Cc1ccccc1)C(=O)N[C@H](C(=O)N[C@@H](CCC(=O)O)C(=O)N[C@@H](Cc1c[nH]c2ccccc12)C(=O)N[C@H](C(=O)N[C@@H](C)C(=O)N[C@@H](CC(N)=O)C(=O)N[C@H](C(N)=O)[C@@H](C)O)[C@@H](C)CC)C(C)C)[C@@H](C)CC)C(=O)O [Peptide 396] (H-H[Aib]QGS[αMeF]TSDK([PEG2-PEG2-γGlu-Palmitoyl])SKILDSRAAQD[αMeF]VEWIANT-NH2) | –
4 | – | – | 43.8 | 6.92 nM | CC[C@H](C)[C@H](NC(=O)C(C)(C)NC(=O)[C@H](CCC(N)=O)NC(=O)[C@@H](NC(=O)[C@](C)(Cc1ccccc1)NC(=O)[C@H](CC(=O)O)NC(=O)[C@H](CCC(N)=O)NC(=O)[C@H](C)NC(=O)[C@H](C)NC(=O)[C@H](CCCNC(=N)N)NC(=O)[C@H](CO)NC(=O)[C@H](CC(=O)O)NC(=O)[C@H](CC(C)C)NC(=O)[C@](C)(Cc1ccccc1)NC(=O)[C@H](CCCCN)NC(=O)[C@H](CO)NC(=O)[C@H](CCCCNC(=O)COCCOCCNC(=O)COCCOCCNC(=O)CC[C@H](NC(=O)CCCCCCCCCCCCCCCCC(=O)O)C(=O)O)NC(=O)[C@H](CC(=O)O)NC(=O)[C@H](CO)NC(=O)[C@@H](NC(=O)[C@](C)(Cc1ccccc1)NC(=O)[C@H](CO)NC(=O)CNC(=O)[C@H](Cc1c[nH]cn1)NC(=O)C(C)(C)NC(=O)[C@@H](N)Cc1c[nH]cn1)[C@@H](C)O)C(C)C)C(=O)N[C@@H](C)C(=O)N[C@@H](CC(N)=O)C(=O)N[C@H](C(N)=O)[C@@H](C)O [Peptide 392] (H-H[Aib]HGS[αMeF]TSDK([AEEA-AEEA-γGlu-C18 diacid])SK[αMeF]LDSRAAQD[αMeF]VQ[Aib]IANT-NH2) | EC50 ([1]; Table 9, peptides modified at position 10, CHO cells): 0.312 nM
5 | 0.209 nM | 0.462 nM | – | – | CC(C)C[C@H](NC(=O)[C@H](Cc1c[nH]c2ccccc12)NC(=O)[C@H](CCCNC(=N)N)NC(=O)[C@@H](NC(=O)[C@H](Cc1ccccc1)NC(=O)[C@H](CC(=O)O)NC(=O)[C@H](CCC(N)=O)NC(=O)[C@H](C)NC(=O)[C@H](CCCNC(=N)N)NC(=O)[C@H](CCCCNC(=O)COCCOCCNC(=O)COCCOCCNC(=O)CC[C@H](NC(=O)CCCCCCCCCCCCCCCCCCC(=O)O)C(=O)O)NC(=O)[C@@H](NC(=O)[C@H](CC(=O)O)NC(=O)[C@H](CC(C)C)NC(=O)[C@](C)(Cc1ccccc1)NC(=O)[C@H](CCCCN)NC(=O)[C@H](CO)NC(=O)[C@@H](NC(=O)[C@H](CC(=O)O)NC(=O)[C@H](CO)NC(=O)[C@@H](NC(=O)[C@H](Cc1ccccc1)NC(=O)[C@@H](NC(=O)CNC(=O)[C@H](CCC(N)=O)NC(=O)C(C)(C)NC(=O)[C@@H](N)Cc1c[nH]cn1)[C@@H](C)O)[C@@H](C)O)C(C)C)[C@@H](C)O)C(C)C)C(=O)N[C@@H](CCC(=O)O)C(=O)N[C@@H](C)C(=O)NC(C)(C)C(=O)NCC(=O)O [Peptide 407] | –
